{
  "source": "patent US20100098737A1",
  "about": "“METHODS AND COMPOSITIONS FOR DELIVERY OF GLYCOPEPTIDE ANTIBIOTICS TO MEDICAL DEVICE SURFACES” (priority 2008, published 2010)",
  "key": {"[1]": {"assay": "binding of serially diluted alkaline-phosphatase linked peptides to immobilized biotinylated vancomycin", "details": "absorbance at 405 nm", "excerpt": "From the peptide amino acid sequence […] (SEQ ID NO: 1) additional peptides were designed and expressed in the bacterial expression system described herein to further evaluate structure-function relationships. A truncated peptide comprising the amino acid sequence of SEQ ID NO:9 (STCLIDMYGVCH) was expressed and compared to a peptide comprising SEQ ID NO:1 for binding affinity for glycopeptide antibiotic. Also produced were a dimer of this truncated peptide (SEQ ID NO:10; […]), a D to A substitution (SEQ ID NO:11; STCLIAMYGVCH), a D to E substitution (SEQ ID NO:12; STCLIEMYGVCH), and a G to S substitution (SEQ ID NO:13; STCLIDMYSVCH). Relative binding strengths of these peptides and of other representative peptides to glycopeptide antibiotic were determined by EC50 values for binding to vancomycin or other glycopeptide antibiotic.\n(§1) A typical binding assay for glycopeptide antibiotic was performed according to the following procedure. The concentrations of the alkaline-phosphatase linked variant peptides were normalized to equal levels based on the alkaline-phosphatase activity as determined in a kinetic assay with the alkaline-phosphatase specific chromogenic substrate p-nitrophenyl phosphate (p-NPP). A streptavidin coated microtiter plate was coated with biotinylated vancomycin. Serial dilutions of normalized alkaline-phosphatase linked peptides were allowed to bind to the immobilized vancomycin and detected by addition of the alkaline-phosphatase specific chromogenic substrate p-NPP. Relative affinity for peptide binding to the immobilized vancomycin was determined by measuring the absorbance at 405 nm of the colored product of the alkaline phosphatase reaction. […] EC50 values for the synthetic peptides binding to vancomycin were determined as described in Example 1 and are shown in Table 3. Preferred are peptides that bind to glycopeptide antibiotic with binding affinity of EC50 of less than or equal to about 1 μM, and more preferably, in the nanomolar range (e.g., <0.1 μM)."}, "[2]": {"tested_on": "Staphylococcus aureus strain MZ100", "assay": "in vitro infection assay on titanium beads, colony counts", "type": "cell-based", "details": "peptide 5 μM + vancomycin 100 μM", "procedure": "To illustrate the antibacterial activity of the peptide compositions, an in vitro infection assay was performed. Briefly, a surface material was contacted with one of the peptide compositions such that the peptide binds to the surface material. The peptide composition can have glycopeptide antibiotic already bound thereto at the time of contacting the peptide with the surface material, or the glycopeptide antibiotic can be contacted with the peptide in a step subsequent to binding the peptide composition to the surface material. The surface material was washed to remove unbound glycopeptide antibiotic, and then contacted with bacterial cells (added from a culture in log phase growth) and incubated to promote bacterial growth. The surface material was washed, and any bacterial cells colonizing the surface material removed and plated to assess bacterial growth.\nIn one example, Staphylococcus aureus strain MZ100 was used as the representative bacterial cells. First, as a representative surface material, titanium beads were sterilized in acetone in a sonication bath, and then air dried in a sterile hood. The beads were individually placed in sterilized microfuge tubes (one bead per tube). […] The next day, the plates were examined for bacterial growth, and the number of bacterial colonies was quantified per plate."}, "S. aureus": {"tested_on": "S. aureus", "assay": "bacterial growth with loaded titanium beads, optical density at 600 nm", "type": "cell-based", "details": "peptide 10 μM + vancomycin 200 μM, 37° C. for 18 hours", "procedure": "In another experiment, antimicrobial activity of the peptide compositions was measured as follows. Titanium beads were placed into wells of a 96 well plate. To each well was added a 10 μM of peptide composition comprising at least one surface-binding peptide coupled to at least one glycopeptide antibiotic binding peptide and vancomycin at 200 μM. The appropriate negative controls were also included. The plate was incubated for 1 hour at 20° C., and then the wells and beads were washed 4 times with buffer. After washing, the beads were transferred to the well of a plate containing S. aureus in log phase growth and incubated at 37° C. for 18 hours. Bacterial growth was assessed by reading optical density at 600 nm."}, "[3]": {"assay": "binding assay: biotinylated synthetic peptide on streptavidin plate, titrated with biotinylated glycopeptide antibiotic", "procedure": "A typical binding assay for glycopeptide antibiotic was performed according to the following procedure. Briefly, synthetic peptides comprising an amino acid sequence to be characterized for binding were biotinylated to facilitate immobilization on streptavidin-coated 96-well plates. The microtiter plates were coated with streptavidin by adding 50 μl of a 10 μg/ml streptavidin solution in 0.1M NaHCO3, and incubating the plates for at least 3 hours. The plate wells were blocked by adding 150 μl of a 1% BSA solution in 0.1 NaHCO3 with incubation for at least 2 hours, and the plates were stored at 4° C. until needed. Before use, the streptavidin plates were washed extensively in buffer-T. Added per well was peptide (100 μl 0.1 μM peptide in buffer-T), and then incubated for 30 minutes at room temperature with shaking. 200 μl of 0.5 mM biotin in buffer-T was added to block the remaining streptavidin sites, and plates were incubated for 15 minutes at room temperature. Plates were then washed with buffer-T to remove the excess biotin and peptide. Serial dilutions of biotinylated glycopeptide antibiotic in buffer-T were added (100 μl) to each well, representing a range of concentrations between 100 pM and 100 μM. Plates were incubated for 30 minutes at room temperature with shaking prior to washing several times with buffer-T. Glycopeptide antibiotic was then detected by adding 100 μl of a diluted streptavidin-alkaline phosphatase conjugate to each well and incubated at room temperature for 30 minutes. Excess conjugate was removed by repeated washes with buffer-T, and the amount of alkaline phosphatase remaining in the well was detected using a pNPP (para-nitrophenylphosphate) colorimetric enzymatic assay. The relative amount of glycopeptide antibiotic captured by the peptides was determined by measuring the absorbance at 405 nm of the colored product of the alkaline phosphatase reaction. The EC50 was determined for each peptide relative to the binding affinity for the glycopeptide antibiotic used in the assay, as shown in Table 1 (with vancomycin as a representative glycopeptide antibiotic).\nas §1"}, "vancomycin [4]": {"target": "vancomycin", "assay": "competition on plates: immobilised biotinylated SEQ ID NO: 1 peptide, 20 nM biotinylated vancomycin, Lys-D-Ala-D-Ala titrated"}, "vancomycin [5]": {"target": "vancomycin", "assay": "plate assay as in Example 1: synthetic peptide on streptavidin, biotinylated vancomycin titrated"}, "vancomycin [6]": {"target": "vancomycin", "assay": "plate assay: biotinylated peptide on streptavidin, biotinylated vancomycin titrated, streptavidin-AP detection"}, "vancomycin [7]": {"target": "vancomycin", "assay": "titanium beads with 10 µM peptide composition and 200 µM vancomycin, washed, vancomycin eluted with HCl and measured by HPLC"}, "[8]": {"details": "synthetic peptides binding to vancomycin, read-out: EC50, binding to glycopeptide antibiotic"}, "[9]": {"details": "synthetic peptides, biotinylated vancomycin, read-out: EC50 (μM) for vancomycin binding"}},
  "note": "Like-named read-outs stand apart in the source and are kept apart here. *1 amine or outer side, *2 acyl side, *3 side chain or, on linkers, in order; H or OH if unused. Bridges are numbered along the chain shown (N, C = ends). Where no end group is shown, it is not given here. [ ]: non-standard residue; d: D form. (miniPEG)2 = linker of two miniPEG units, each HN-CH2CH2-O-CH2CH2-O-CH2-C(=O), O=C(COCCOCCN[*:1])NCCOCCOCC(=O)[*:2]",
  "data": [
    {"molecule": "11 (STCLIAMYGVCH) [compound 11]", "values": [
      {"measurement": "glycopeptide antibiotic binding of alkaline-phosphatase linked peptides", "setting": "[1]", "result": "no detectable glycopeptide antibiotic binding"}
    ]},
    {"molecule": "12 (STCLIEMYGVCH) [compound 12]", "values": [
      {"measurement": "glycopeptide antibiotic binding of alkaline-phosphatase linked peptides", "setting": "[1]", "result": "no detectable glycopeptide antibiotic binding"}
    ]},
    {"molecule": "13 (STCLIDMYSVCH) [compound 13]", "values": [
      {"measurement": "glycopeptide antibiotic binding of alkaline-phosphatase linked peptides", "setting": "[1]", "result": "no detectable glycopeptide antibiotic binding"}
    ]},
    {"molecule": "119 (NHTISKNHKKKNKNSNKTR) [compound 119]", "values": [
      {"measurement": "bacterial growth on the plates", "setting": "[2]", "result": "completely inhibited"}
    ]},
    {"molecule": "120 (H-SSSCLIDMYGVCHNFDGAYDSSRG[(miniPEG)2]SSHRTNHKKNNPKKKNKTRGSSGK-NH2; disulfide 4-12) [compound 120]", "values": [
      {"measurement": "inhibition of bacterial growth (optical density at 600 nm)", "setting": "S. aureus", "result": "complete inhibition"}
    ]},
    {"molecule": "130 (SSCLIDIYGVCHNFDAY[(miniPEG)2]HKKNNPKKKNKTRGSSK; disulfide 3-11 (inferred)) [compound 130]", "values": [
      {"measurement": "inhibition of bacterial growth (optical density at 600 nm)", "setting": "S. aureus", "result": "complete inhibition"}
    ]},
    {"molecule": "131 (SSCLIDIYGVCHNFDAY[(miniPEG)2]SSHRTNHKKNNPKKKNKTRGSSGK; disulfide 3-11 (inferred)) [compound 131]", "values": [
      {"measurement": "inhibition of bacterial growth (optical density at 600 nm)", "setting": "S. aureus", "result": "complete inhibition"}
    ]},
    {"molecule": "CLFDIFGVCHSFDGAYDS [compound 2]", "values": [
      {"measurement": "EC50", "setting": "[3]; [8]", "result": "< 0.1", "unit": "µM"},
      {"measurement": "EC50", "setting": "[3]; [9]", "result": 0.06, "unit": "µM"}
    ]},
    {"molecule": "Lys-D-Ala-D-Ala (peptide)", "values": [
      {"measurement": "IC50", "setting": "vancomycin [4]", "result": 10000, "unit": "nM"},
      {"measurement": "percent inhibition at 100 µM to 200 µM Lys-D-Ala-D-Ala", "setting": "vancomycin [4]", "result": 100, "unit": "%"}
    ]},
    {"molecule": "NHTISKNHKKKNKNSNKTR [SEQ ID NO: 119]", "values": [
      {"measurement": "# of bacterial colonies", "setting": "[2]; 2 hour incubation", "result": 0}
    ]},
    {"molecule": "PCELIDMFGNDHCP [compound 3]", "values": [
      {"measurement": "EC50", "setting": "[3]; [8]", "result": "< 0.1", "unit": "µM"},
      {"measurement": "EC50", "setting": "[3]; [9]", "result": 0.82, "unit": "µM"}
    ]},
    {"molecule": "SCDMLFCENFSGSGNNWFS [compound 4]", "values": [
      {"measurement": "EC50", "setting": "[3]; [9]", "result": 10, "unit": "µM"}
    ]},
    {"molecule": "SLIDMYGVCHNFDGAYDS [compound 5]", "values": [
      {"measurement": "EC50", "setting": "[3]; [9]", "result": 10, "unit": "µM"}
    ]},
    {"molecule": "STCLIDMYGVCH [compound 9]", "values": [
      {"measurement": "EC50", "setting": "[3]; [8]", "result": "< 1", "unit": "µM"},
      {"measurement": "glycopeptide antibiotic binding of alkaline-phosphatase linked peptides", "setting": "[1]", "result": "displayed glycopeptide antibiotic binding"}
    ]},
    {"molecule": "STCLIDMYGVCHSSCLIDMYGVCH [compound 10]", "values": [
      {"measurement": "EC50", "setting": "[3]; [8]", "result": "< 1", "unit": "µM"},
      {"measurement": "glycopeptide antibiotic binding of alkaline-phosphatase linked peptides", "setting": "[1]", "result": "displayed glycopeptide antibiotic binding"}
    ]},
    {"molecule": "CLIDMYGVCHNFDGAYDS (cysteine pairing not given here; also: biotinylated, site not given here)", "note": "[synthetic peptide comprising SEQ ID NO: 1]", "values": [
      {"measurement": "EC50", "setting": "vancomycin [5]", "result": "< 100", "unit": "nM"},
      {"measurement": "EC50", "setting": "vancomycin [6]", "result": 100, "unit": "nM"}
    ]},
    {"molecule": "STCLIDMYGVCH (cysteine pairing not given here; also: biotinylated, site not given here)", "note": "[synthetic peptide comprising SEQ ID NO: 9]", "values": [
      {"measurement": "EC50", "setting": "vancomycin [5]", "result": "< 1000", "unit": "nM"}
    ]},
    {"molecule": "SSCLIDIYGVCHNFDAY[(miniPEG)2]HKKNNPKKKNKTRGSSK (disulfide 3-11 (inferred))", "note": "[peptide composition SEQ ID NO: 130]", "values": [
      {"measurement": "Picomoles vancomycin/cm^2 (picomoles/cm^2)", "setting": "vancomycin [7]", "result": 83}
    ]},
    {"molecule": "STCLIDMYGVCHSSCLIDMYGVCH (cysteine pairing not given here; also: biotinylated, site not given here)", "note": "[synthetic peptide comprising SEQ ID NO: 10]", "values": [
      {"measurement": "EC50", "setting": "vancomycin [5]", "result": "< 1000", "unit": "nM"}
    ]},
    {"molecule": "SLIDMYGVCHNFDGAYDS (also: biotinylated, site not given here)", "note": "[synthetic peptide comprising SEQ ID NO: 5]", "values": [
      {"measurement": "EC50", "setting": "vancomycin [6]", "result": 10000, "unit": "nM"}
    ]},
    {"molecule": "SSCLIDIYGVCHNFDAY[(miniPEG)2]SSHRTNHKKNNPKKKNKTRGSSGK (disulfide 3-11 (inferred))", "note": "[peptide composition SEQ ID NO: 131]", "values": [
      {"measurement": "Picomoles vancomycin/cm^2 (picomoles/cm^2)", "setting": "vancomycin [7]", "result": 76}
    ]},
    {"molecule": "CLFDIFGVCHSFDGAYDS (cysteine pairing not given here; also: biotinylated, site not given here)", "note": "[synthetic peptide comprising SEQ ID NO: 2]", "values": [
      {"measurement": "EC50", "setting": "vancomycin [5]", "result": "< 100", "unit": "nM"},
      {"measurement": "EC50", "setting": "vancomycin [6]", "result": 60, "unit": "nM"}
    ]},
    {"molecule": "PCELIDMFGNDHCP (cysteine pairing not given here; also: biotinylated, site not given here)", "note": "[synthetic peptide comprising SEQ ID NO: 3]", "values": [
      {"measurement": "EC50", "setting": "vancomycin [5]", "result": "< 100", "unit": "nM"},
      {"measurement": "EC50", "setting": "vancomycin [6]", "result": 820, "unit": "nM"}
    ]},
    {"molecule": "SCDMLFCENFSGSGNNWFS (cysteine pairing not given here; also: biotinylated, site not given here)", "note": "[synthetic peptide comprising SEQ ID NO: 4]", "values": [
      {"measurement": "EC50", "setting": "vancomycin [6]", "result": 10000, "unit": "nM"}
    ]}
  ]
}
